Test results reported in patent US20110039762A1, “TARGETED ANTIMICROBIAL MOIETIES” (C3 JIAN, INC., priority 2009, published 2011).
“Also recorded” adds a separate entry of the source.

Key:
M. luteus = experiment: Kill or inhibit growth/proliferation; morphology, biofilm and growth disruption (Tables 5, 6); assay type: cell-based, Micrococcus luteus; parameters: key: A: Peptide aggregates; B: Less hyphal formation; Clumps; Diffuse clumps and small polyps; F: Diffuse growth; H: Thin; I: Growth inhibition; Microcolony formation; Rippled; Small polyps; Thick; W: Halo formation on top, microlonies on bottom; further: test concentration or dose not given here
[1] = system: microorganisms (e.g., bacteria, yeasts, fungi); experiment: Targeting peptide binding to target microorganisms (Table 3); details: microorganism(s) the targeting peptide binds, preferably 1x PBS
microorganisms = experiment: Peptides having multiple activities (targeting/binding, antimicrobial, growth or phenotype altering)
Source text: In certain embodiments, peptides described herein can have multiple activities. Thus for example, a peptide can have both binding/targeting activity and antimicrobial activity. Such peptides can be used, e.g., in a chimeric construct, for any or all of these properties. Thus, for example, a peptide designated “B” in Table 8 can be used as a targeting peptide. If it is also designated G or M it can also be used for antimicrobial activity.

MRSA = experiment: Kill or inhibit growth/proliferation; morphology, biofilm and growth disruption (Tables 5, 6); assay type: cell-based, Methicillin-resistant Staphylococcus aureus; parameters: key: A: Peptide aggregates; B: Less hyphal formation; Clumps; Diffuse clumps and small polyps; F: Diffuse growth; H: Thin; I: Growth inhibition; Microcolony formation; Rippled; Small polyps; Thick; W: Halo formation on top, microlonies on bottom; further: test concentration or dose not given here
S. epidermidis = experiment: as above; assay type: cell-based, Staphylococcus epidermidis; parameters: key: A: Peptide aggregates; B: Less hyphal formation; Clumps; Diffuse clumps and small polyps; F: Diffuse growth; H: Thin; I: Growth inhibition; Microcolony formation; Rippled; Small polyps; Thick; W: Halo formation on top, microlonies on bottom
S. pneumoniae = experiment: as above; assay type: cell-based, Streptococcus pneumoniae; parameters: key: A: Peptide aggregates; B: Less hyphal formation; Clumps; Diffuse clumps and small polyps; F: Diffuse growth; H: Thin; I: Growth inhibition; Microcolony formation; Rippled; Small polyps; Thick; W: Halo formation on top, microlonies on bottom; further: test concentration or dose not given here
E. faecalis = experiment: as above; assay type: cell-based, Enterococcus faecalis; parameters: key: A: Peptide aggregates; B: Less hyphal formation; Clumps; Diffuse clumps and small polyps; F: Diffuse growth; H: Thin; I: Growth inhibition; Microcolony formation; Rippled; Small polyps; Thick; W: Halo formation on top, microlonies on bottom; further: test concentration or dose not given here
E. coli = experiment: as above; assay type: cell-based, Escherichia coli; parameters: key: A: Peptide aggregates; B: Less hyphal formation; Clumps; Diffuse clumps and small polyps; F: Diffuse growth; H: Thin; I: Growth inhibition; Microcolony formation; Rippled; Small polyps; Thick; W: Halo formation on top, microlonies on bottom; further: test concentration or dose not given here
[2] = binding in aqueous buffers depending on peptide solubility
[3] = peptide binding conducted in aqueous buffers varied by peptide solubility
Wherever Organism, effect is given: test concentration or dose not given here.

Substance | Organism, effect (M. luteus) | Target(s) [1, 2] | Activities (microorganisms) | Organism, effect (MRSA) | Organism, effect (S. epidermidis) | Organism, effect (S. pneumoniae) | Organism, effect (E. faecalis) | Organism, effect (E. coli) | Target(s) [1, 3]
PF-249: peptide having multiple activities (INSRYKISF; Peptide with targeting and/or antimicrobial activity) | M. luteus (R) | S. epidermidis; also recorded: M. luteus | G B |  |  |  |  |  | 
EILNNNQVIKELTMKYKTQFESNLGGWTARARR [PF-580] | M. luteus (C) |  | G B | MRSA (M) | S. epidermidis (M) | S. pneumoniae (C) |  |  | 
PF-271: peptide having multiple activities (AAQPQTTSP; Peptide with targeting and/or antimicrobial activity) | M. luteus (T) | S. epidermidis; also recorded: M. luteus; also recorded: P. aeruginosa; also recorded: A. baumannii | G B |  |  |  |  |  | 
PF-250 (SEDIFGRLANEKANGLEELRKIRLKQ; Peptide with targeting and/or antimicrobial activity) | M. luteus (T) |  |  |  |  |  |  |  | 
PF-270: peptide having multiple activities (MYLTPYAWIAVGSIFAFSVTTIKIGDQNDEKQKSHKNDVHKR; Peptide with targeting and/or antimicrobial activity) | M. luteus (H) | S. epidermidis; also recorded: M. luteus; also recorded: P. aeruginosa | G B |  |  |  |  |  | 
PF-125: peptide having multiple activities (YVVGALVILAVAGLIYSMLRKA; Peptide with targeting and/or antimicrobial activity) | M. luteus (C) |  | G B |  | S. epidermidis (D) |  |  |  | 
PF-274 (SIQEAEKIIKNDPFYIHDVADYDFMWFEPSKSLEEIKEFV; Peptide with targeting and/or antimicrobial activity) | M. luteus (M) |  |  |  |  |  |  |  | 
PF-357: peptide having multiple activities (chain 1 MLTIIIGFIFWTMTLMLGYLIGEREGRKHE; chain 2 MLTIIIGFIFWTMTLMLGYLIGEREGRKHE; Peptide with targeting and/or antimicrobial activity) | M. luteus (C) |  | G B | MRSA (M) | S. epidermidis (M) | S. pneumoniae (M) |  |  | 
PF-234: peptide having multiple activities (RTPYILRS; Peptide with targeting and/or antimicrobial activity) | M. luteus (T) | S. epidermidis; also recorded: M. luteus | G B |  |  |  |  |  | 
PF-212: peptide having multiple activities (NDSKASN; Peptide with targeting and/or antimicrobial activity) | M. luteus (M) | M. luteus; also recorded: P. aeruginosa | G B |  |  |  |  |  | 
PF-215: peptide having multiple activities (ELKITNYNVNTVLYRYYKWGNDLCE; Peptide with targeting and/or antimicrobial activity) | M. luteus (T) | S. epidermidis; also recorded: M. luteus; also recorded: P. aeruginosa; also recorded: A. baumannii | G B |  |  |  |  |  | 
PF-518: peptide having multiple activities (chain 1 SFYSKYSRYIDNLAGAIFLFF; chain 2 SFYSKYSRYIDNLAGAIFLFF; Peptide with targeting and/or antimicrobial activity) |  |  | G B | MRSA (C) | S. epidermidis (C) | S. pneumoniae (M) | E. faecalis (C) | E. coli (R) | S. epidermidis and E. coli and P. aeruginosa and C. albicans and MRSA and S. pneumoniae and E. faecalis
PF-276: peptide having multiple activities (LDLALSTNSLNLEGFSF; Peptide with targeting and/or antimicrobial activity) | M. luteus (M) | S. epidermidis | G B |  |  |  |  |  | 
LMFFSENMDKRDTLSGKFRYFAGSKVIKLMNWLSENGK [PF-226] | M. luteus (T) | A. baumannii | G B |  | S. epidermidis (C) |  |  |  | 
PF-235: peptide having multiple activities (GIPFSKPHKRQVNYMKSDVLAYIEQNKMAHTA; Peptide with targeting and/or antimicrobial activity) | M. luteus (T) | S. epidermidis; also recorded: M. luteus | G B |  |  |  |  |  | 
MGIIAGIIKVIKSLIEQFTGK [PF-007] | M. luteus (A) |  | G B | MRSA (R) | S. epidermidis (A) |  | E. faecalis (A) | E. coli (A) | 
PF-224: peptide having multiple activities (DYFYITLSQKNTF; Peptide with targeting and/or antimicrobial activity) | M. luteus (T) | S. epidermidis; also recorded: P. aeruginosa; also recorded: A. baumannii | G B |  |  |  |  |  | 
PF-264 (MQSLSNRQSLIASYILMGIFLSFGYPPASLSKFFCRLSHL; Peptide with targeting and/or antimicrobial activity) | M. luteus (H) |  |  |  |  |  |  |  | 
VWENRKKYLENEIERHNVFLKLGQEVIKGLNALASRGR [PF-257] | M. luteus (R) | S. epidermidis | G B |  |  |  |  |  | 
PF-255: peptide having multiple activities (DHKINESQHNPFRSDSNKQNVDFF; Peptide with targeting and/or antimicrobial activity) | M. luteus (M) | P. aeruginosa | G B |  |  |  |  |  | 
PF-452: peptide having multiple activities (chain 1 MNNWIKVAQISVTVINEVIDIMKEKQNGGK; chain 2 MNNWIKVAQISVTVINEVIDIMKEKQNGGK; Peptide with targeting and/or antimicrobial activity) |  |  | G B | MRSA (C) | S. epidermidis (C) | S. pneumoniae (R) | E. faecalis (C) | E. coli (C) | M. luteus; also recorded: P. aeruginosa; also recorded: C. albicans; also recorded: S. pneumoniae; also recorded: E. faecalis; also recorded: C. jeikeium; also recorded: M. smegmatis
PF-444: peptide having multiple activities (chain 1 MAAKLWEEGKMVYASSASMTKRLKLAMSKV; chain 2 MAAKLWEEGKMVYASSASMTKRLKLAMSKV; Peptide with targeting and/or antimicrobial activity) |  |  | G B | MRSA (C) | S. epidermidis (C) | S. pneumoniae (R) | E. faecalis (C) | E. coli (R) | M. luteus; also recorded: C. albicans; also recorded: S. pneumoniae; also recorded: C. jeikeium
